Laboratory results from ChEMBL document CHEMBL1152998, “Structure-based virtual screening approach to identify novel classes of PTP1B inhibitors” (Eur J Med Chem, 2009).

molecular target: T1, Tyrosine-protein phosphatase non-receptor type 1 (Homo sapiens, UniProt P18031); assay: Inhibition of PTP1B by pNPP hydrolase assay
T1 sequence (P18031 whole entry): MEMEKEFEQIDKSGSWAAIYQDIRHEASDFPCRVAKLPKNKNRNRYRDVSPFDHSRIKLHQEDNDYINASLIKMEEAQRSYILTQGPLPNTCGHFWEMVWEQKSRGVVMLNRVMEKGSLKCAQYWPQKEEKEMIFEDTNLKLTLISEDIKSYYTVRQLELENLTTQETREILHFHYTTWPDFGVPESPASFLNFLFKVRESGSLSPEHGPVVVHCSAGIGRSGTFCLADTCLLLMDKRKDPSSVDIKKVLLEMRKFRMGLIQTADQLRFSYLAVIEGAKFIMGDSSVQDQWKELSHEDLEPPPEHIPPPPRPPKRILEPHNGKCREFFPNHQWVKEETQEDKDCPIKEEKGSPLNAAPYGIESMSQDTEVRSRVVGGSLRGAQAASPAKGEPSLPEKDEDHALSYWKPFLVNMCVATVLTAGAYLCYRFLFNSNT

SMILES | IC50
N#C/C(=C\c1ccc(-c2ccccc2C(=O)O)o1)C(=O)Nc1ccc2ccccc2c1 | 27 µM
O=C1NC(=O)N(c2ccccc2)C(=O)/C1=C\c1cn(Cc2cccc3ccccc23)c2ccccc12 | 12 µM
COc1cc(C)ccc1OCCn1cccc1/C=C1\C(=O)NC(=O)N(c2ccc(C)c(Cl)c2)C1=O | 35 µM
O=C1ON=C(c2ccccc2)/C1=C\c1ccccc1OCc1ccccc1Cl | 22 µM
CCOc1ccc(-c2csc(C(C#N)CNc3ccc4oc(=O)ccc4c3)n2)cc1 (centres undefined) | 28 µM
O=C(O)c1cccc(-c2ccc(-c3nc4sc5c(c4c(=O)[nH]3)CCCC5)o2)c1 | 25 µM
O=C(O)c1ccc(Nc2cc3ccccc3cc2NS(=O)(=O)c2ccc(F)cc2)cc1 | 41 µM
O=C(O)c1cc(-c2ccc(/C=C3\NC(=O)N(c4ccccc4)C3=O)o2)ccc1Cl | 34 µM
O=C1NC(=O)/C(=C\c2ccc(OCc3ccc(F)cc3)c(Br)c2)S1 | 11 µM
